Measured values from patent US9924717B2, “Molecules having pesticidal utility, and intermediates, compositions, and processes, related thereto” (Dow AgroSciences LLC, priority 2016, dated 2018).

Experiments:
Format in all cases: in vivo
[1] = tested on: Green Peach Aphid (Myzus persicae, MYZUPE) (GPA); assay: Bioassays on Green Peach Aphid (GPA), cabbage seedling foliar spray; conditions: Table ABC rating
Protocol: Example B: Bioassays on Green Peach Aphid (Myzus persicae, MYZUPE) (“GPA”) Certain molecules disclosed in this document were tested against GPA using procedures described in the following example. In the reporting of the results, the “GPA & YFM Rating Table” was used (See Table Section). Cabbage seedlings grown in 3-inch pots, with 2-3 small (3-5 cm) true leaves, were used as test substrate. The seedlings were infested with 20-50 GPA (wingless adult and nymph stages) one day prior to chemical application. Four pots with individual seedlings were used for each treatment. Test molecules (2 mg) were dissolved in 2 mL of acetone/methanol (1:1) solvent, forming stock solutions of 1000 ppm test molecule. The stock solutions were diluted 5× with 0.025% Tween 20 in water to obtain the solution at 200 ppm test molecule. A hand-held aspirator-type sprayer was used for spraying a solution to both sides of […] leaves until runoff. Reference plants (solvent check) were sprayed with the diluent only containing 20% by volume of acetone/methanol (1:1) solvent. Treated plants were held in a holding room for three days at approximately 25° C. and ambient relative humidity (RH) prior to grading. Evaluation was conducted by counting the number of live aphids per plant under a microscope. Percent Control was measured by using Abbott's correction formula (W. S. Abbott, “A Method of Computing the Effectiveness of an Insecticide” J. Econ. Entomol. 18 (1925), pp. 265-267) as follows. Corrected % Control=100*(X−Y)/X • where • X=No. of live aphids on solvent check plants and • Y=No. of live aphids on treated plants The results are indicated in the table entitled “Table ABC: Biological Results” (See Table Section).

[2] = tested on: Cabbage Looper (Trichoplusia ni, TRIPNI) (CL); assay: Bioassays on Cabbage Looper (CL), 128-well diet tray assay; conditions: Table ABC rating, Cabbage Looper
Outline: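 Cabbage looper (Trichoplusia ni) larvae at the second instar stage were tested in a 128-well diet tray. Each 3 mL well held 1 mL of artificial diet treated with test molecule dissolved in 50 μL of 90:10 acetone-water and allowed to dry, eight wells per treatment. One to five larvae were added per well. Trays were sealed with clear self-adhesive covers and kept at 25° C., 14:10 light-dark for five to seven days. Percent mortality per well was averaged across the eight wells.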

[3] = tested on: Beet Armyworm (Spodoptera exigua, LAPHEG) (BAW); assay: Bioassays on Beet Armyworm (BAW), 128-well diet tray assay; conditions: Table ABC rating, Beet Armyworm
Outline: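 Beet armyworm (Spodoptera exigua) was tested with a 128-well diet tray format. Each 3 mL well held 1 mL of artificial diet treated with the test molecule in 50 μL of 90:10 acetone-water and allowed to dry, across eight wells. One to five second instar larvae were added per well. Trays were sealed with clear self-adhesive covers and kept at 25° C. under 14:10 light-dark for five to seven days. Percent mortality was scored per well and averaged across the eight wells.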

Compound	GPA [1]	pest or weed control at 50 µg/cm2 [2] [%]	pest or weed control at 50 µg/cm2 [3] [%]
CO/N=C\NC(=O)c1ccc(/C(F)=C/C(c2cc(Cl)c(Cl)c(Cl)c2)C(F)(F)F)cc1C(F)(F)F (mixture of isomers) [F19, N-((E/Z)-(methoxyimino)methyl)-4-((Z)-1,4,4,4-tetrafluoro-3-(3,4,5-trichlorophenyl)but-1-en-1-yl)-2-(trifluoromethyl)benzamide]	B (More than 0-Less than 80)	50 to 100	50 to 100
O=C(NC1CC1)c1ccc(/C(F)=C/C(c2cc(Cl)c(Cl)c(Cl)c2)C(F)(F)F)cc1C(F)(F)F (stereo not drawn) [F3, (Z)—N-Cyclopropyl-4-(1,4,4,4-tetrafluoro-3-(3,4,5-trichlorophenyl)but-1-en-1-yl)-2-(trifluoromethyl)benzamide]	B (More than 0-Less than 80)	50 to 100	50 to 100
O=C(NC1CC(F)(F)C1)c1ccc(/C(F)=C/C(c2cc(Cl)c(Cl)c(Cl)c2)C(F)(F)F)cc1C(F)(F)F (stereo not drawn) [F7, (Z)—N-(3,3-difluorocyclobutyl)-4-(1,4,4,4-tetrafluoro-3-(3,4,5-trichlorophenyl)but-1-en-1-yl)-2-(trifluoromethyl)benzamide]	A (80-100)	50 to 100	50 to 100
